“Also recorded” adds a separate entry of the source.
Experiments:
Type in all cases: in vivo, mouse
Cln2^R207X mice [1] = test: Astroglial activation (GFAP) in brain of Cln2^R207X mice
Method: (§1) Specific experimental details are included in figure legends. In general, after collection and preparation, MEFs and PNCs were dosed with vehicle or AF38469 (40 nM, 400 nM. or 4 μM) on DIV3 and DIV5. On DIV7, cells were treated with the following dyes: Hoechst 33342 (1:1000 dilution), LysoTrackerT™ Red DND-99 (1:10,000 dilution), fixed, and imaged. Mice were given vehicle or AF38469 (78.125 μg/ml, 3.125 μg/ml, 0.3125 μg/ml or 0.03125 μg/ml equating approximately to 250 μg/mouse/day, 10 μg/mouse/day, 1 μg/mouse/day, and […], respectively, given a mouse's daily water intake of approximately 3.2 ml per day) in drinking water beginning at wean. Body weight was measured bi-weekly, and a force actimeter test was performed on Cln2^R207X mice at 10 weeks of age. Body weight was measured every month for Cln3^Δex7/8 mice. At 11 and 16 weeks of age, respectively, Cln2^R207X and Cln3^Δex7/8 mice along with age matched wild type control mice were CO2 euthanized and intracardially perfused with PBS. Brains were collected and placed on a 1 mm sagittal brain block. Brains were sliced at the midline and 3 mm right of the midline. One hemisphere was fixed in 4% PFA and sectioned at 50 microns on a vibratome. Immunohistochemistry was performed on free-floating sections. For mitochondrial ATP synthase subunit C (SubC), glial fibrillary acidic protein (GFAP), and cluster of differentiation 68 (CD68) immunolabeling, primary antibodies included anti-SubC (Abcam, ab181243; 1:1000), anti-GFAP (Dako, Z0334; 1:5000), anti-CD68 (AbD Serotec, MCA1957; 1:2000), and secondary antibodies included anti-rabbit biotinylated (Vector Labs, BA-1000 1:1000) and anti-rat (Vector Labs, BA-9400 1:1000). Coverslips were mounted on slides using antifade-mounting media and were stored in the dark before imaging. Sections were imaged and analyzed using an Aperio Digital Pathology Slide Scanner (AT2) and associated software. Images were extracted from S1BF of the somatosensory cortex and the VPM/VPL of the thalamus, with multiple images taken of multiple tissues from each animal.
Short-term chronic treatment with AF38469 impacts glial activation in Cln2^R207X mice. Beginning at wean, wild type and Cln2^R207X mice were treated with vehicle (0.2408% DMSO) or AF38469 (0.03125 μg/ml, 0.3125 μg/ml, 3.125 μg/ml, 78.125 μg/ml) continuously through the drinking water continuing until sacrifice at 11 weeks. Upon sacrifice, one hemisphere of brain was sectioned at 50 microns on a vibratome; DAB staining immunohistochemistry was then performed using anti-GFAP (Dako, Z0334; 1:5000), anti-CD68 (AbD Serotec, MCA1957; 1:2000), anti-rabbit biotinylated (Vector Labs, BA-1000 1:1000), and anti-rat (Vector Labs, BA-9400 1:1000). Sections were imaged and analyzed using an Aperio Digital Pathology Slide Scanner (AT2) and associated software. Images were extracted from S1BF of the somatosensory cortex and the VPM/VPL of the thalamus. Percent area of immunoreactivity were quantified using a threshold analysis in ImageJ™. Statistical analyses were performed using GraphPad Prism™ (v8.4.3; San Diego, CA). […] Increasing concentrations of AF38469 and corresponding genotypes are shown along the x-axis. Nested one-way ANOVA. Mean±S.E.M. Dunnett's multiple comparisons test compared to the mutant vehicle treated group. *p<0.05, **p<0.01, ***p<0.001, ****p<0.0001. Reactive gliosis including activated microglia and reactive astrocytes is one of the histopathologies associated with neurodegenerative diseases such as NCLs.

Cln2^R207X mice [2] = test: Microglial activation (CD68) in brain of Cln2^R207X mice
Method: as §1
Short-term chronic treatment with AF38469 impacts glial activation in Cln2^R207X mice. Beginning at wean, wild type and Cln2^R207X mice were treated with vehicle (0.2408% DMSO) or AF38469 (0.03125 μg/ml, 0.3125 μg/ml, 3.125 μg/ml, 78.125 μg/ml) continuously through the drinking water continuing until sacrifice at 11 weeks. […] Sections were imaged and analyzed using an Aperio Digital Pathology Slide Scanner (AT2) and associated software. […] Percent area of immunoreactivity were quantified using a threshold analysis in ImageJ™. […]

Cln2^R207X mice [3] = test: SubC burden (immunohistochemistry) in brain of Cln2^R207X mice; settings: for Subunit C burden: somatosensory cortex
Method: as §1
Short-term chronic treatment with AF38469 reduces storage material burden in Cln2^R207X and Cln3^Δex7/8 mice. Beginning at wean, wild type and Cln2^R207X mice were treated with vehicle (0.2408% DMSO) or AF38469 (0.03125 μg/ml, 0.3125 μg/ml, 3.125 μg/ml, 78.125 μg/ml) continuously through the drinking water continuing until sacrifice at 11 weeks. […] Sections were imaged and analyzed using an Aperio Digital Pathology Slide Scanner (AT2) and associated software. […] Percent area of immunoreactivity were quantified using a threshold analysis in ImageJ™. […]

[4] = higher doses, summary statement

Compound: Cc1cccc(NC(=O)c2ccc(C(F)(F)F)cc2C(=O)O)n1 [AF38469, 2-((6-methylpyridin-2-yl)carbamoyl)-5-(trifluoromethyl)benzoic acid]
- astroglial activation (GFAP) (Cln2^R207X mice [1]; 3.125 μg/ml, 78.125 μg/ml, VPM/VPL of the thalamus): did not impact
- astroglial activation (GFAP) (Cln2^R207X mice [1]; 3.125 μg/ml, somatosensory cortex): significantly increased
- astroglial activation (GFAP) (Cln2^R207X mice [1]; 78.125 μg/ml, somatosensory cortex): had no impact
- GFAP reactivity (Cln2^R207X mice [1]; [4]): increased or had no impact
- astroglial activation (GFAP) (Cln2^R207X mice [1]; lower doses 0.03125 μg/ml, 0.3125 μg/ml): had no significant impact; also recorded: did not significantly impact
- microglial activation (CD68) (Cln2^R207X mice [2]; 3.125 μg/ml, 78.125 μg/ml, somatosensory cortex): did not significantly impact
- microglial activation (CD68) (Cln2^R207X mice [2]; 78.125 μg/ml, VPM/VPL of the thalamus): significantly increased
- CD68 reactivity (Cln2^R207X mice [2]; [4]): increased or had no impact
- microglial activation (CD68) (Cln2^R207X mice [2]; lower doses 0.03125 μg/ml, 0.3125 μg/ml, somatosensory cortex): significantly and potently decreased
- Subunit C burden (Cln2^R207X mice [3]; 0.03125 μg/ml, 0.3125 μg/ml in drinking water, 11 weeks): significantly decreased
- SubC burden (Cln2^R207X mice [3]; 3.125 μg/ml, 78.125 μg/ml in drinking water, VPM/VPL of the thalamus, 11 weeks, vs vehicle Cln2^R207X): did not have an impact
- Subunit C burden (Cln2^R207X mice [3]; 78.125 μg/ml in drinking water, 11 weeks): significantly decreased
- SubC accumulation (Cln2^R207X mice [3]; overall statement, short term treatment, Cln2^R207X): reduces

Source: patent US20240197700A1, “Methods and Compositions for Treating Lysosomal Storage Disorders” (Sanford Health, priority 2021, published 2024)
